The record followed here is PubChem BioAssay (NCI).

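Dose response: 5 concentrations. Exposure: 48 h. Format: 96-well plates. Endpoint: linear interpolation; highest concentration if not reached. The concentration for 50% growth inhibition is given as GI50. TGI is the concentration that stops growth completely.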

What all share (experiment): DTP human tumour cell line panel, 48 h
The subject of experiment [1] is HOP-62 NSCLC.
Experiment [2] has as its system LOX IMVI melanoma.
Experiment [3] relates to M14 melanoma.
The subject of experiment [4] is MALME-3M melanoma.
The subject of experiment [5] is PC-3 prostate.
In experiment [6] the test system is RPMI-8226 leukemia.
Experiment [7] concerns SF-268 CNS.
Experiment [8] concerns SF-539 CNS.
For experiment [9], the system named is SK-MEL-2 melanoma.
The subject of experiment [10] is SK-MEL-5 melanoma.

The term GI50 denotes the concentration that inhibits growth by half. What is called TGI is the concentration giving total growth inhibition. Low values mean more potent growth arrest, high ones less potent growth arrest. For the compound `COc1ccc(/C=C/c2c(C(=O)/C=C/c3ccccc3)c(C)nc3ccccc23)cc1`, the GI50 in experiment [1] is 1.89 µM; in [2], 1.69 µM; in [3] it was 1.84 µM; in experiment [4], 1.74 µM; in [5] it was 1.66 µM; in [6] it was 1.74 µM. The GI50 is 2.18 µM in [7], 1.76 µM in experiment [8], 2.11 µM in experiment [9] and 1.73 µM in experiment [10]. Moreover, the TGI in experiment [1] came to 3.58 µM; in experiment [2], 3.08 µM; in [3], 4.44 µM; in experiment [4], 3.2 µM; in experiment [5], 3.81 µM; in experiment [6], 5.54 µM. In addition, the TGI in [7] was determined as 5.65 µM; in [8] it was 3.2 µM; in experiment [9] it was 5.06 µM; in [10] it was 3.13 µM.

`CN(C)CCNc1ccc(CO)c2oc3ccc(O)cc3c(=O)c12`: the TGI in [1] was determined as 27.3 µM; in experiment [2] it was 27 µM; in experiment [3], 29.5 µM; in experiment [4] it was 26.6 µM; in [5], 29.3 µM; in experiment [6], 51.1 µM. Further, the TGI amounted to 42.2 µM in experiment [7], 25.1 µM in experiment [8], 30.7 µM in experiment [9] and 27.9 µM in experiment [10].

Turning to `NC(=O)c1cc(Cl)ccc1NC(=O)/C=C/c1ccccc1`, the GI50 in experiment [1] was 7.79 µM; in experiment [2] it was 4.33 µM; in experiment [3] it was 2.25 µM; in experiment [4], 3.18 µM; in experiment [5], 3.2 µM; in experiment [6] it was 2.86 µM. Also, the GI50 in experiment [7] is 5.96 µM; in experiment [8] it was 2.05 µM; in experiment [9], 3.95 µM; in experiment [10] it was 0.787 µM. Further, the total growth inhibition concentration (TGI) was more than 41.6 µM in experiment [1]; more than 100 µM in experiment [2]; more than 31.5 µM in [3]; more than 100 µM in experiment [4]; more than 100 µM in [5]; more than 100 µM in [6]. In addition, the TGI in [7] was more than 60.4 µM; in [8], 5.53 µM; in experiment [9], more than 39.3 µM.

For the compound `COc1c2c(cc3c1OCO3)[C@]13C=C[C@H](OC)C[C@H]1N(C2)CC3O` (stereo partly drawn), the concentration for total growth inhibition (TGI) in [1], in experiment [2], in [3], in experiment [4], in [5] and in experiment [6] was more than 100 µM in each case. Further, the TGI in experiment [7], in experiment [8], in experiment [9] and in experiment [10] was more than 100 µM in each case.

Take `Cc1cc2ncnn2cc1Nc1ncc2c(n1)n(C1CCOCC1)c(=O)n2C`: the GI50 in experiment [1] is 3.95 µM; in [2], 5.92 µM; in experiment [3], 11.2 µM; in experiment [4] it was 2.49 µM; in experiment [5] it was 2.73 µM; in experiment [6] it was 4.41 µM. Further, the GI50 in experiment [7] is 6.18 µM; in experiment [8] it was 9.63 µM; in experiment [9], 12.2 µM; in [10], 14 µM. For the same compound, the TGI in experiment [1] was 78.2 µM; in experiment [2], more than 100 µM; in experiment [3] it was more than 100 µM; in experiment [4], 29.3 µM; in experiment [5] it was more than 100 µM; in [6], more than 100 µM. Moreover, the TGI in experiment [7] was more than 100 µM; in experiment [8], 51.5 µM; in [9] it was 71.5 µM; in [10], 29.2 µM.

`CCc1nc2cc(F)c(/C=C/C(=O)NO)cc2c(=O)n1CCc1ccccc1`: the GI50 is 0.291 µM in [1]; 0.208 µM in [2]; 0.355 µM in experiment [3]; 0.216 µM in experiment [4]; 0.526 µM in [5]; 0.387 µM in [6]. Besides, the GI50 in experiment [7] was 0.355 µM; in experiment [8] it was 0.341 µM; in [9], 0.293 µM; in experiment [10], 0.256 µM. For the same compound, the TGI worked out at 1.74 µM in experiment [1]; 0.46 µM in [2]; 4.78 µM in experiment [3]; 0.907 µM in experiment [4]; 59.4 µM in experiment [5]; 19.9 µM in experiment [6]. The TGI was 10.1 µM in [7], 3.36 µM in experiment [8], 0.863 µM in experiment [9] and 0.701 µM in experiment [10].

Consider `N#Cc1cc(-c2cc3ccccc3o2)oc1N`, for which the GI50 in experiment [1] is 3.18 µM; in experiment [2], 2.87 µM; in [3], 6.11 µM; in [4], 2.45 µM; in experiment [5], 2.73 µM; in [6], 1.46 µM. Moreover, the GI50 in [7] is 4.73 µM; in [8], 3.89 µM; in [9], 1.29 µM; in experiment [10], 1.52 µM. Besides, the TGI in experiment [1] is 11.3 µM; in [2] it was 12.5 µM; in experiment [3] it was 22 µM; in [4] it was 6.98 µM; in experiment [5], 6.85 µM; in experiment [6], 5.04 µM. Also, the TGI in [7] was found to be 20.1 µM; in experiment [8], 14.5 µM; in [9], 4.49 µM; in [10] it was 3.78 µM.

Consider `COc1ccc(C(=O)c2cc(C)c(OC)c(C)c2)cc1OC(=O)CCl`, for which the GI50 is less than 0.0191 µM in [1]; less than 0.01 µM in [2]; less than 0.01 µM in experiment [3]; 13.1 µM in experiment [4]; less than 0.021 µM in experiment [5]; less than 0.01 µM in [6]. Besides, the GI50 was less than 0.011 µM in experiment [7], less than 0.01 µM in experiment [8], less than 0.01 µM in experiment [9] and less than 0.01 µM in [10]. Further, the TGI was more than 100 µM in [1]; more than 100 µM in experiment [2]; 22.8 µM in experiment [3]; 59.6 µM in experiment [4]; more than 100 µM in experiment [5]; 25.3 µM in experiment [6]. Moreover, the TGI in [7] was more than 100 µM; in experiment [8], less than 0.01 µM; in [9] it was more than 100 µM; in [10] it was 0.459 µM.

For the compound `NNC(=S)N/N=C(/C(=O)Nc1ccc(Cl)c(Cl)c1)C(C1OC(=O)c2ccccc21)[N+](=O)[O-]` (stereo not drawn), the TGI in experiment [1], in experiment [2], in [3], in experiment [4], in experiment [5] and in [6] was more than 100 µM throughout. The TGI in experiment [7], in experiment [8], in [9] and in experiment [10] was more than 100 µM throughout.

On to `Cc1cc2nc(C=C(C(F)(F)F)C(F)(F)F)oc2cc1C`, for which the TGI in [1] worked out at 9.72 µM; in [2], 3.96 µM; in [3], 5.03 µM; in [4] it was 3.76 µM; in experiment [5] it was 5.08 µM; in experiment [6], 5.62 µM. The TGI in experiment [7] was 9 µM; in experiment [8], 6.43 µM; in experiment [9], more than 10 µM; in [10], more than 10 µM.

Turning to `CC(C)c1ccc(-c2cc(-c3cn[nH]c3-c3ccccn3)ccn2)cc1`, the GI50 is 12 µM in experiment [1]; 14.6 µM in experiment [2]; 14.4 µM in [3]; 8.83 µM in [4]; 9 µM in experiment [5]; 11.9 µM in experiment [6]. For the same compound, the GI50 in experiment [7] was 14.9 µM; in experiment [8] it was 25 µM; in [9] it was 9.52 µM; in experiment [10], 6.65 µM. Further, the TGI in experiment [1], in [2], in experiment [3], in experiment [4], in experiment [5] and in experiment [6] was more than 25 µM each time. Besides, the concentration for total growth inhibition (TGI) was more than 25 µM in experiment [7], more than 25 µM in experiment [8], more than 25 µM in experiment [9] and more than 16.6 µM in experiment [10].

With `O=C1/C(=C(/c2ccccc2)N2CCOCC2)Cc2ccccc21`, the GI50 was 12.5 µM in [1]; 0.92 µM in experiment [2]; 1.84 µM in experiment [3]; 1.28 µM in experiment [4]; 1.64 µM in [5]; 0.522 µM in experiment [6]. Also, the GI50 was 2.29 µM in experiment [7], 1.9 µM in experiment [8], 2.03 µM in experiment [9] and 2.25 µM in experiment [10]. Moreover, the TGI in [1] turned out to be 27.1 µM; in experiment [2], 2.52 µM; in [3] it was 4.67 µM; in experiment [4], 3.08 µM; in [5], 6.15 µM; in experiment [7], 6.35 µM. The TGI in experiment [8] stood at 3.91 µM; in experiment [9], 6.34 µM; in [10], 6.73 µM.

Take `C=C1C(=O)O[C@H]2[C@H]1CC/C(COC(=O)NCCCCNC(=O)OC/C1=C/CC[C@@]3(C)O[C@H]3[C@H]3OC(=O)C(=C)[C@@H]3CC1)=C\CC[C@@]1(C)O[C@@H]21`: the GI50 in experiment [1] is 3.84 µM; in [2], 0.519 µM; in experiment [3] it was 1.97 µM; in experiment [4], 0.452 µM; in [5], 2.55 µM; in experiment [6], 0.547 µM. Besides, the GI50 in experiment [7] is 3.18 µM; in experiment [8], 1.55 µM; in experiment [9], 1.77 µM; in [10], 3.33 µM. Also, the TGI came to 14 µM in experiment [1]; 1.92 µM in [2]; 4.82 µM in [3]; 2.19 µM in [4]; 8.05 µM in experiment [5]; 3.08 µM in experiment [6]. Also, the TGI in [7] worked out at 12.6 µM; in experiment [8] it was 3.71 µM; in experiment [9], 4.89 µM; in experiment [10], 11.8 µM.
